Assay results taken from ChEMBL document CHEMBL3045777, “Response of selected horseweed (Conyza canadensis (L.) Cronq.) populations to glyphosate” (2004).

How the values were obtained:
Erigeron canadensis [1] = assay: Herbicidal activity against compound-resistant Conyza canadensis (horseweed) isolate 2 under greenhouse condition at 1.25 kg ae/ha measured 14 days post treatment relative to control; type: functional
Erigeron canadensis [2] = assay: Herbicidal activity against compound-resistant Conyza canadensis (horseweed) isolate 2 under greenhouse condition at 1.68 kg ae/ha measured 7 days post treatment relative to control; type: functional
Erigeron canadensis [3] = assay: Herbicidal activity against compound-resistant Conyza canadensis (horseweed) isolate 2 under greenhouse condition at 1.25 kg ae/ha measured 7 days post treatment relative to control; type: functional
Erigeron canadensis [4] = assay: Herbicidal activity against compound-resistant Conyza canadensis (horseweed) isolate 2 under greenhouse condition at 0.84 kg ae/ha measured 7 days post treatment relative to control; type: functional
Erigeron canadensis [5] = assay: Herbicidal activity against Conyza canadensis (horseweed) under greenhouse condition at 0.05 kg ae/ha measured 7 days post treatment relative to control; type: functional
Erigeron canadensis [6] = assay: Herbicidal activity against compound-resistant Conyza canadensis (horseweed) isolate 2 under greenhouse condition at 9 kg ae/ha measured 14 days post treatment relative to control; type: functional
Erigeron canadensis [7] = assay: Herbicidal activity against compound-resistant Conyza canadensis (horseweed) isolate 2 under greenhouse condition at 9 kg ae/ha measured 21 days post treatment relative to control; type: functional
Erigeron canadensis [8] = assay: Herbicidal activity against compound-resistant Conyza canadensis (horseweed) isolate 2 under greenhouse condition at 3.36 kg ae/ha measured 21 days post treatment relative to control; type: functional
Erigeron canadensis [9] = assay: Herbicidal activity against compound-resistant Conyza canadensis (horseweed) isolate 2 under greenhouse condition at 2.52 kg ae/ha measured 21 days post treatment relative to control; type: functional
Erigeron canadensis [10] = assay: Herbicidal activity against compound-resistant Conyza canadensis (horseweed) isolate 2 under greenhouse condition at 1.68 kg ae/ha measured 21 days post treatment relative to control; type: functional
Erigeron canadensis [11] = assay: Herbicidal activity against compound-resistant Conyza canadensis (horseweed) isolate 2 under greenhouse condition at 1.25 kg ae/ha measured 21 days post treatment relative to control; type: functional
Erigeron canadensis [12] = assay: Herbicidal activity against compound-resistant Conyza canadensis (horseweed) isolate 2 under greenhouse condition at 0.84 kg ae/ha measured 21 days post treatment relative to control; type: functional
Erigeron canadensis [13] = assay: Herbicidal activity against compound-resistant Conyza canadensis (horseweed) isolate 2 under greenhouse condition at 2.52 kg ae/ha measured 14 days post treatment relative to control; type: functional
Erigeron canadensis [14] = assay: Herbicidal activity against compound-resistant Conyza canadensis (horseweed) isolate 2 under greenhouse condition at 1.68 kg ae/ha measured 14 days post treatment relative to control; type: functional
Erigeron canadensis [15] = assay: Herbicidal activity against compound-sensitive Conyza canadensis (horseweed) under greenhouse condition at 0.84 kg ae/ha measured 14 days post treatment relative to control; type: functional
Erigeron canadensis [16] = assay: Herbicidal activity against compound-sensitive Conyza canadensis (horseweed) under greenhouse condition at 2.52 kg ae/ha measured 7 days post treatment relative to control; type: functional
Erigeron canadensis [17] = assay: Herbicidal activity against compound-sensitive Conyza canadensis (horseweed) under greenhouse condition at 3.36 kg ae/ha measured 7 days post treatment relative to control; type: functional
Erigeron canadensis [18] = assay: Herbicidal activity against compound-resistant Conyza canadensis (horseweed) isolate 1 under greenhouse condition at 9 kg ae/ha measured 21 days post treatment relative to control; type: functional
Erigeron canadensis [19] = assay: Herbicidal activity against compound-resistant Conyza canadensis (horseweed) isolate 1 under greenhouse condition at 3.36 kg ae/ha measured 21 days post treatment relative to control; type: functional
Erigeron canadensis [20] = assay: Herbicidal activity against compound-resistant Conyza canadensis (horseweed) isolate 1 under greenhouse condition at 2.52 kg ae/ha measured 21 days post treatment relative to control; type: functional
Erigeron canadensis [21] = assay: Herbicidal activity against compound-resistant Conyza canadensis (horseweed) isolate 1 under greenhouse condition at 1.68 kg ae/ha measured 21 days post treatment relative to control; type: functional
Erigeron canadensis [22] = assay: Herbicidal activity against compound-resistant Conyza canadensis (horseweed) isolate 1 under greenhouse condition at 0.84 kg ae/ha measured 21 days post treatment relative to control; type: functional
Erigeron canadensis [23] = assay: Herbicidal activity against compound-resistant Conyza canadensis (horseweed) isolate 1 under greenhouse condition at 0.45 kg ae/ha measured 21 days post treatment relative to control; type: functional
Erigeron canadensis [24] = assay: Herbicidal activity against compound-resistant Conyza canadensis (horseweed) isolate 1 under greenhouse condition at 1.25 kg ae/ha measured 14 days post treatment relative to control; type: functional
Erigeron canadensis [25] = assay: Herbicidal activity against compound-resistant Conyza canadensis (horseweed) isolate 1 under greenhouse condition at 1.68 kg ae/ha measured 7 days post treatment relative to control; type: functional
Erigeron canadensis [26] = assay: Herbicidal activity against compound-resistant Conyza canadensis (horseweed) isolate 1 under greenhouse condition at 1.68 kg ae/ha measured 14 days post treatment relative to control; type: functional
Erigeron canadensis [27] = assay: Herbicidal activity against compound-sensitive Conyza canadensis (horseweed) under greenhouse condition at 2.52 kg ae/ha measured 21 days post treatment relative to control; type: functional
Erigeron canadensis [28] = assay: Herbicidal activity against compound-sensitive Conyza canadensis (horseweed) under greenhouse condition at 1.68 kg ae/ha measured 21 days post treatment relative to control; type: functional
Erigeron canadensis [29] = assay: Herbicidal activity against compound-sensitive Conyza canadensis (horseweed) under greenhouse condition assessed as fresh weight at 3.36 kg ae/ha measured 21 days post treatment relative to untreated control
Erigeron canadensis [30] = assay: Herbicidal activity against compound-sensitive Conyza canadensis (horseweed) under greenhouse condition assessed as fresh weight at 2.52 kg ae/ha measured 21 days post treatment relative to untreated control
Erigeron canadensis [31] = assay: Herbicidal activity against compound-sensitive Conyza canadensis (horseweed) under greenhouse condition assessed as fresh weight at 1.68 kg ae/ha measured 21 days post treatment relative to untreated control
Erigeron canadensis [32] = assay: Herbicidal activity against compound-sensitive Conyza canadensis (horseweed) under greenhouse condition assessed as fresh weight at 0.84 kg ae/ha measured 21 days post treatment relative to untreated control
Erigeron canadensis [33] = assay: Herbicidal activity against compound-sensitive Conyza canadensis (horseweed) under greenhouse condition assessed as fresh weight at 0.45 kg ae/ha measured 21 days post treatment relative to untreated control
Erigeron canadensis [34] = assay: Herbicidal activity against compound-resistant Conyza canadensis (horseweed) isolate 2 under greenhouse condition assessed as fresh weight at 1.68 kg ae/ha measured 21 days post treatment relative to untreated control
Erigeron canadensis [35] = assay: Herbicidal activity against compound-resistant Conyza canadensis (horseweed) isolate 2 under greenhouse condition assessed as fresh weight at 0.84 kg ae/ha measured 21 days post treatment relative to untreated control
Erigeron canadensis [36] = assay: Herbicidal activity against compound-resistant Conyza canadensis (horseweed) isolate 1 under greenhouse condition assessed as fresh weight at 1.25 kg ae/ha measured 21 days post treatment relative to untreated control

Structure (SMILES): O=C(O)CNCP(=O)(O)O [GLYPHOSATE]
- Activity (Erigeron canadensis [1]): 15%
- Activity (Erigeron canadensis [2]): 50%
- Activity (Erigeron canadensis [3]): 33%
- Activity (Erigeron canadensis [4]): 23%
- Activity (Erigeron canadensis [5]): 14%
- Activity (Erigeron canadensis [6]): 91%
- Activity (Erigeron canadensis [7]): 89%
- Activity (Erigeron canadensis [8]): 75%
- Activity (Erigeron canadensis [9]): 63%
- Activity (Erigeron canadensis [10]): 50%
- Activity (Erigeron canadensis [11]): 25%
- Activity (Erigeron canadensis [12]): 24%
- Activity (Erigeron canadensis [13]): 50%
- Activity (Erigeron canadensis [14]): 44%
- Activity (Erigeron canadensis [15]): 63%
- Activity (Erigeron canadensis [16]): 83%
- Activity (Erigeron canadensis [17]): 85%
- Activity (Erigeron canadensis [18]): 80%
- Activity (Erigeron canadensis [19]): 75%
- Activity (Erigeron canadensis [20]): 59%
- Activity (Erigeron canadensis [21]): 43%
- Activity (Erigeron canadensis [22]): 11%
- Activity (Erigeron canadensis [23]): 11%
- Activity (Erigeron canadensis [24]): 18%
- Activity (Erigeron canadensis [25]): 40%
- Activity (Erigeron canadensis [26]): 40%
- Activity (Erigeron canadensis [27]): 99%
- Activity (Erigeron canadensis [28]): 99%
- level, % of control (Erigeron canadensis [29]): 6%
- level, % of control (Erigeron canadensis [30]): 2%
- level, % of control (Erigeron canadensis [31]): 1%
- level, % of control (Erigeron canadensis [32]): 27%
- level, % of control (Erigeron canadensis [33]): 30%
- level, % of control (Erigeron canadensis [34]): 49%
- level, % of control (Erigeron canadensis [35]): 86%
- level, % of control (Erigeron canadensis [36]): 88%
